Measurements reported in US20250327027A1, “METHODS TO GENERATE ENHANCED TUMOR INFILTRATING LYMPHOCYTES THROUGH MICROFLUIDIC DELIVERY” (STEMCELL TECHNOLOGIES CANADA INC., priority 2021, published 2025).
Values joined by “and” are separate entries in the source; they are usually repeats but may differ in a detail not shown here. Equal entries are not always repeated.

How the values were obtained:
Type in all cases: cell-based
melanoma TILs = experiment: Comparison of microfluidic chips and anti-CD3 antibody clones used in REP (mbIL-2/mbIL-12 expression); conditions: anti-CD3 clone used in REP culture; 4 hours post squeeze
From the text: As described herein, TILs are often expanded to increase their number prior to their use in adoptive transfer studies Such expansion phase can involve the use of anti-CD3 antibodies to activate and induce the TILs to proliferate. Whether the specific anti-CD3 antibody clone used in the expansion phase was next assessed. Briefly, melanoma TILs were collected from REP cultures that contained different anti-CD3 clones (OKT3, SK7, HIT3a, or UCHT1). Following cell harvest, the post-REP TILs were resuspended at 40 million live cells/mL cell density as 2× concentration. The cells were mixed with equal volume of 2× mRNA solution and squeezed through various chip types (10-3.5-70 SF, 10-4-70 ST) and pressure (30 psi) at room temperature. Final concentration of cells was 20 million live cells/mL. Final mRNA concentration for squeeze was […] for each of mbIL-2 and mbIL-12 mRNA. Following the squeeze processing, cells were quenched in CTS OpTmizer media and spun immediately. […] The squeezed TILs were assessed at 4 hours post squeeze by flow cytometry for viability, cell composition, and surface levels of mbIL-2 and mbIL-12.

lung TILs = experiment: Comparison of anti-CD3 antibody concentration in pre-REP (mbIL-2/mbIL-12 and CD62L expression); conditions: 6 or 30 ng/mL anti-CD3 antibody (OKT3 clone) during pre-REP
Description: As described herein, in some aspects, prior to modifying the TILs, the TILs can undergo a first expansion phase (pre-REP) and a second expansion phase (REP). Whether the concentration of the anti-CD3 antibody during the first expansion phase has an effect in producing the modified TILs described herein, the following methods were used. Briefly, lung TILs underwent a pre-REP process in the absence or presence of 6 or 30 ng/mL anti-CD3 antibody (OKT3 clone). Then, the TILs were collected and further expanded in a REP process. Afterwards, the cells were resuspended at 40 million live cells/mL cell density as 2× concentration. The cells were mixed with equal volume of 2× mRNA solution and squeezed through 10-4-70 ST at 60 psi at room temperature. Final concentration of cells was 20 million live cells/mL. Final mRNA concentration for squeeze was […] for each of mbIL-2 and mbIL-12 mRNA. Following squeezing, cells were quenched in CTS OpTmizer media and spun immediately. […] The squeezed TILs were assessed at 4, 24, and 48 hours post squeeze by flow cytometry for viability, cell composition, surface levels of mbIL-2 and mbIL-12.

TILs = experiment: Effect of anti-CD3 antibody on TIL expansion from melanoma tumor fragments (NucleoCounter NC-200); conditions: for Cell Count on Day 13 / Viability on Day 13: 6,000 IU/mL recombinant IL-2, replicate wells
Description: Further to the data provided in Example 22, the effect of anti-CD3 antibody on TIL expansion was further assessed. Briefly, freshly resected melanoma tumor was rinsed in 1× Hank's Balanced Salt Solution (HBSS) with 10 μg/mL gentamicin and dissected into 8-27 mm^3 fragments using a forceps and scalpel. […] Five tumor fragments, 8-27 mm^3 in size, per well were added to the G-Rex6M plate. The G-Rex6M plate was then placed in a 37° C., 5% CO2 incubator for 4 days.
On day 4, the G-Rex6M plate was removed from the incubator. […] The G-Rex6M plate was returned to the 37° C., 5% CO2 incubator for an additional 9 days.
On day 13, the TILs were harvested and transferred to a 50 mL conical tube. The number and viability of the TILs was assessed using a NucleoCounter NC-200.

OKT3: anti-CD3 antibody clone used in TIL expansion
mbIL-2 and mbIL-12 expression (percentage of total cells and MFI) (melanoma TILs): higher expression | impact on translation kinetics of mbIL-2 and mbIL-12 expression (lung TILs): minimal impact | Cell Count on Day 13 (TILs; 6 ng/mL OKT3): 2.35 × 10^8 and 2.43 × 10^8 | Viability on Day 13 (TILs; 6 ng/mL OKT3): 90.7% and 91.1% | Cell Count on Day 13 (TILs; 20 ng/mL OKT3): 2.00 × 10^8 and 2.17 × 10^8 | Viability on Day 13 (TILs; 20 ng/mL OKT3): 90.5% and 91.6% | TIL expansion (TILs; 6 or 30 ng/mL of OKT3, day 13, compared to culture without OKT3): greater TIL expansion
